# Laboratory results taken from US7265121B2, “Chemical compounds” (Eli Lilly and Company, priority 2001, dated 2007).
# Tested on: not given
# Assay: not given
# Details: not given
row,SMILES,melting point
1,C#CC[C@@H](NC(=O)c1cc2cc(Cl)ccc2[nH]1)C(=O)N1CCN(C2CCN(C)CC2)CC1.Cl,174 to 185 °C (dec.)
2,C#CC[C@@H](NC(=O)c1ccc2cc[nH]c2c1)C(=O)N1CCN(C2CCN(C)CC2)CC1.Cl,170 to 180 °C (dec.)
3,C#CC[C@@H](NC(=O)c1cc2ccc(Cl)cc2s1)C(=O)N1CCN(C2CCN(C)CC2)CC1.Cl,115 to 135 °C (dec.)
4,C=CC[C@@H](NC(=O)c1ccc2cc[nH]c2c1)C(=O)N1CCN(C2CCN(C)CC2)CC1.Cl,110 to 115 °C (dec.)
5,C=CC[C@@H](NC(=O)c1cc2ccc(Cl)cc2s1)C(=O)N1CCN(C2CCN(C)CC2)CC1.Cl,130 to 135 °C (dec.)
6,C=CC[C@@H](NC(=O)c1cc2cc(Cl)ccc2[nH]1)C(=O)N1CCN(C2CCN(C)CC2)CC1.Cl,170 to 175 °C (dec.)

# Biological target: T1, human factor Xa (Homo sapiens, UniProt P00742)
# T1 construct: 25 μL human factor Xa (32 nM in 0.03 M tris, 0.15 M NaCl, 1 mg/mL HSA); purchased Enzyme Research Laboratories (South Bend, Ind., USA)
# Assay: Enzyme inhibition assay: apparent association constant (Kass) for human factor Xa, chromogenic substrate hydrolysis
# Type: biochemical
# Details: human factor Xa 3.2 nM, BzIleGluGlyArgpNA substrate, approximately inverse of Ki
# Description: Human factor Xa and human thrombin are purchased from Enzyme Research Laboratories (South Bend, Ind., USA). Other proteases are from other commercial sources. Chromogenic para-nitroanilide peptide protease substrates are purchased from Midwest Biotech (Fishers, Ind., USA).
# The binding affinities for human factor Xa are were measured as apparent association constants (Kass) derived from protease inhibition kinetics as described previously.^a,b,c,d The apparent Kass values are obtained using automated (BioMek-1000) dilutions of inhibitors (Kass determinations are performed in triplicate at each of four-eight inhibitor concentrations) into 96-well plates and chromogenic substrate hydrolysis rates determined at 405 nm using a Thermomax plate reader from Molecular Devices (San Francisco). For factor Xa inhibition, the assay protocol is: 50 μL buffer (0.06 M tris, 0.3 M NaCl, pH 7.4); 25 μL inhibitor test solution (in MeOH); 25 μL human factor Xa (32 nM in 0.03 M tris, 0.15 M NaCl, 1 mg/mL HSA); finally, 150 μL BzIleGluGlyArgpNA (0.3 mM in water) added within 2 min to start hydrolysis. Final [factor Xa] is 3.2 nM. [Free Xa] and [bound Xa] are determined from linear standard curves on the same plate by use of SoftmaxPro software for each inhibitor concentration and apparent Kass calculated for each inhibitor concentration which produced hydrolysis inhibition between 20% and 80% of the control (3.2 nM factor Xa): apparent Kass [E:I]/[Ef][If]=[Eb]/[Ef][I^o−Ib]. The apparent Kass values so obtained are approximately the inverse of the Ki for the respective inhibitors [1/appKass=app Ki]. The variability of mean apparent Kass values determined at the single substrate concentration is +/−15%. The assay system Km was measured as 0.347+/−0.031 mM [n=4]; and Vmax was 13.11+/−0.76 μM/min.
# T1 sequence (P00742 235-488 limits assumed): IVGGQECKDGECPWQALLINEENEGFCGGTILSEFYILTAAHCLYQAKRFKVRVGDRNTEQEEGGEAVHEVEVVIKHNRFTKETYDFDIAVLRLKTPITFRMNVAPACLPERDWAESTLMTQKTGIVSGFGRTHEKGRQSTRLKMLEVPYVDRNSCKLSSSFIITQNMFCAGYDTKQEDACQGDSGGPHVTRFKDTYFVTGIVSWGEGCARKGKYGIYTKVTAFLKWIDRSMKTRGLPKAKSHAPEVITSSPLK
# T1 sequence (P00742 41-179 partner limits assumed): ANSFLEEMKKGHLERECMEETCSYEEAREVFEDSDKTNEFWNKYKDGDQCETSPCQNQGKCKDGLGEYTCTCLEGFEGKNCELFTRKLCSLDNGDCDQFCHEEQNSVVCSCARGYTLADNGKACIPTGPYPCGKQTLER
row,SMILES,Kass
1,"COc1ccc(C(=O)N[C@@H](C(=O)N2CCC(C3CCN(C)CC3)CC2)C(C)C)cc1.Cl [Example 6, 1-(4-Methoxybenzoyl-D-valinyl)-4-(1-methylpiperidin-4-yl)-piperidine Hydrochloride]",about 20 ×10^6 L/mole
2,"CC(C)[C@@H](NC(=O)c1ccc2cc[nH]c2c1)C(=O)N1CCC(C2CCN(C)CC2)CC1.Cl [Example 9, 1-(Indole-6-carbonyl-D-valinyl)-4-(1-methylpiperidin-4-yl)piperidine Hydrochloride]",~8.9e+07 L/mol
3,"CC(C)[C@@H](NC(=O)c1cc2cc(Cl)ccc2[nH]1)C(=O)N1CCN(C2CCN(C)CC2)CC1.Cl [Example 18, 1-(5-Chloroindole-2-carbonyl-D-valinyl)-4-(1-methylpiperidin-4-yl)piperazine Hydrochloride]",~3.58e+08 L/mol
